The values below come from patent publication US20200270233A1, “DHFR INHIBITORS, COMPOSITIONS, AND METHODS RELATED THERETO” (Vyera Pharmaceuticais LLC, priority 2017, published 2020).

One test addresses T. cruzi DHFR (tcDHFR) (Trypanosoma cruzi, UniProt Q27793). Description: biochemical. As to conditions: Table 17; for Average DHFR selectivity (h/tc): hDHFR IC50/tcDHFR IC50; for IC50: pIC50 = -log10 IC50, at least three replicates, read-out: tcDHFR pIC50-DHFR primary assay (converted).
In a further test the target is T1, hDHFR (Homo sapiens, UniProt P00374).
T1 sequence (P00374 1-187): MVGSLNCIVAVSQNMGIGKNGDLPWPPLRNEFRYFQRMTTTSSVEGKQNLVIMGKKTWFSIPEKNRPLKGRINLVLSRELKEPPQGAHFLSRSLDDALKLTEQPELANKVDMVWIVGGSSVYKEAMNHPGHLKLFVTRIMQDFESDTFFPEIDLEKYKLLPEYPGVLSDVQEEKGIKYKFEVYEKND
The format is biochemical. As to conditions: pIC50 = -log10 IC50, at least three replicates, read-out: hDHFR pIC50-DHFR primary assay (converted).

For the next test, the target named is T2, T. gondii DHFR (tgDHFR) (Toxoplasma gondii, UniProt Q07422).
T2 sequence (Q07422 1-610): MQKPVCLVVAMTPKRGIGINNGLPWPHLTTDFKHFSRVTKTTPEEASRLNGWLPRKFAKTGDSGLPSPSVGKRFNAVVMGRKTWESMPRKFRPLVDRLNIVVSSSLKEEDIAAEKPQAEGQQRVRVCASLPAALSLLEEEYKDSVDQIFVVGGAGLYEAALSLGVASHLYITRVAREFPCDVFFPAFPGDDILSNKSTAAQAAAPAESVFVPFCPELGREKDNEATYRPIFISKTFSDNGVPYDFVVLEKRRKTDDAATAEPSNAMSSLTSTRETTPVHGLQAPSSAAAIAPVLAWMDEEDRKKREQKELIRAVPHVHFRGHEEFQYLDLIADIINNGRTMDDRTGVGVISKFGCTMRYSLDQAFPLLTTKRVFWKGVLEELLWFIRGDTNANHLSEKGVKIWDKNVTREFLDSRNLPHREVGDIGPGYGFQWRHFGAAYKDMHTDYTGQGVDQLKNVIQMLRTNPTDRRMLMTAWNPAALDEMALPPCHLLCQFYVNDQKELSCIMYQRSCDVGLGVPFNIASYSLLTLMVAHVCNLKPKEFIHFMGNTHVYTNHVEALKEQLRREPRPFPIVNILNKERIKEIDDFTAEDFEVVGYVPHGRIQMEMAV
The test can be described thus: biochemical. As to conditions: Table 16; for Average DHFR selectivity (h/tg): hDHFR IC50/tgDHFR IC50; for IC50: pIC50 = -log10 IC50, at least three replicates, read-out: tgDHFR pIC50-DHFR primary assay (converted).

Like-named read-outs stand apart in the source and are kept apart here.

T. cruzi DHFR (tcDHFR), sequence (Q27793 whole entry): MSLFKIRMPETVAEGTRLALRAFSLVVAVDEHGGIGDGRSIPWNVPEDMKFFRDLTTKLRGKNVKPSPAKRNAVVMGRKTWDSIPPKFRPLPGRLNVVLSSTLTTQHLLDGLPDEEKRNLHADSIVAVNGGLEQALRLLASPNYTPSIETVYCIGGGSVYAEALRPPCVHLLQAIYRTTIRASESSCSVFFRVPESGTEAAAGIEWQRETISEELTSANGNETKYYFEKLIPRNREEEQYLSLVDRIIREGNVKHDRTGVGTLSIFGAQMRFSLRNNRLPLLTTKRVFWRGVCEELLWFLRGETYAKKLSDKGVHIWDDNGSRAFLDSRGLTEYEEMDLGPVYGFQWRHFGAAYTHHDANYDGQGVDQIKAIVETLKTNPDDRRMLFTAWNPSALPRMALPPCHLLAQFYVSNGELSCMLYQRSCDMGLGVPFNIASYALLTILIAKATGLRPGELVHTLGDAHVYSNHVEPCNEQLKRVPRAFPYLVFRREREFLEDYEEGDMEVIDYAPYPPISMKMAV

On to `N#Cc1ncc(-c2cccc(N3CCN(c4cnc(N)nc4N)CC3)c2)cn1` [Compound 168], for which the “Average DHFR selectivity (h/tc)” value on T. cruzi DHFR (tcDHFR) came to 60.24. Moreover, the IC50 on T. cruzi DHFR (tcDHFR) is 7.5 nM; on hDHFR (Table 16) it was 447 nM; on hDHFR (Table 17), 452 nM; on T. gondii DHFR (tgDHFR), 3.63 nM. Also, the “Average DHFR selectivity (h/tg)” value at T. gondii DHFR (tgDHFR) worked out at 123.80.

Take `Nc1ncc(N2CCN(c3ccc(C4CCOCC4)cc3)CC2)c(N)n1` [Compound 173]: at T. cruzi DHFR (tcDHFR), the “Average DHFR selectivity (h/tc)” value is listed as 30.425. Moreover, the IC50 at T. cruzi DHFR (tcDHFR) is 20.2 nM; on hDHFR (Table 16), 1620 nM; at hDHFR (Table 17), 610 nM; at T. gondii DHFR (tgDHFR), 389 nM. Moreover, at T. gondii DHFR (tgDHFR), the “Average DHFR selectivity (h/tg)” value is on record as 4.18.

In the case of `Nc1ncc(N2CCN(c3ccccc3C3CCOCC3)CC2)c(N)n1` [Compound 175], the “Average DHFR selectivity (h/tc)” value on T. cruzi DHFR (tcDHFR) is 17.745. Also, the IC50 on T. cruzi DHFR (tcDHFR) is 741 nM; on hDHFR (Table 16), 13200 nM; on hDHFR (Table 17) it was 13200 nM; on T. gondii DHFR (tgDHFR), 3020 nM. Further, at T. gondii DHFR (tgDHFR), the “Average DHFR selectivity (h/tg)” value turned out to be 4.39.

Take `Nc1ncc(C2CCN(c3cccc(C4CCOCC4)c3)CC2)c(N)n1` [Compound 178]: at T. cruzi DHFR (tcDHFR), the “Average DHFR selectivity (h/tc)” value turned out to be 30.635. The IC50 was 95.5 nM at T. cruzi DHFR (tcDHFR), 2880 nM on hDHFR (Table 16), 2880 nM on hDHFR (Table 17) and 27.5 nM on T. gondii DHFR (tgDHFR). Also, the “Average DHFR selectivity (h/tg)” value on T. gondii DHFR (tgDHFR) was determined as 104.18.

For the compound `COc1ncc(-c2cccc(N3CCC(c4cnc(N)nc4N)CC3)c2)cn1` [Compound 183, 5-(1-(3-(2-methoxypyrimidin-5-yl)phenyl)piperidin-4-yl)pyrimidine-2,4-diamine], the “Average DHFR selectivity (h/tc)” value on T. cruzi DHFR (tcDHFR) is 40.64. In addition, the IC50 at T. cruzi DHFR (tcDHFR) was 7.76 nM; at hDHFR (Table 16) it was 468 nM; on hDHFR (Table 17), 316 nM; on T. gondii DHFR (tgDHFR), 3.39 nM. Further, on T. gondii DHFR (tgDHFR), the “Average DHFR selectivity (h/tg)” value is 146.21.

For `Nc1ncc(C2=CCN(c3cnc(C(F)(F)F)nc3)CC2)c(N)n1` [Compound 184], at T. cruzi DHFR (tcDHFR), the “Average DHFR selectivity (h/tc)” value is on record as 23.13. The IC50 at T. cruzi DHFR (tcDHFR) was 151 nM; at hDHFR (Table 16), 3310 nM; at hDHFR (Table 17), 3350 nM; at T. gondii DHFR (tgDHFR), 851 nM. In addition, the “Average DHFR selectivity (h/tg)” value on T. gondii DHFR (tgDHFR) amounted to 3.97.

Regarding `Nc1ncc(C2=CCN(c3cccc(C4=CCOCC4)c3)CC2)c(N)n1` [Compound 185], the “Average DHFR selectivity (h/tc)” value on T. cruzi DHFR (tcDHFR) worked out at 6.715. In addition, the IC50 is 47.9 nM on T. cruzi DHFR (tcDHFR), 316 nM on hDHFR (Table 16), 320 nM on hDHFR (Table 17) and 12.6 nM at T. gondii DHFR (tgDHFR). The “Average DHFR selectivity (h/tg)” value at T. gondii DHFR (tgDHFR) worked out at 25.02.

Turning to `Nc1ncc(C2CCN(c3ccc(C(F)(F)F)nc3)CC2)c(N)n1` [Compound 186], at T. cruzi DHFR (tcDHFR), the “Average DHFR selectivity (h/tc)” value is given as 115.7. For the same compound, the IC50 is 8.41 nM on T. cruzi DHFR (tcDHFR), 955 nM on hDHFR (Table 16), 955 nM on hDHFR (Table 17) and 200 nM on T. gondii DHFR (tgDHFR). Besides, at T. gondii DHFR (tgDHFR), the “Average DHFR selectivity (h/tg)” value is 5.18.

For `Nc1ncc(C2CCN(c3cnc(C(F)(F)F)nc3)CC2)c(N)n1` [Compound 187], the “Average DHFR selectivity (h/tc)” value at T. cruzi DHFR (tcDHFR) is listed as 95.3. Besides, the IC50 at T. cruzi DHFR (tcDHFR) is 66.1 nM; at hDHFR (Table 16) it was 6170 nM; at hDHFR (Table 17) it was 6170 nM; on T. gondii DHFR (tgDHFR), 1740 nM. The “Average DHFR selectivity (h/tg)” value on T. gondii DHFR (tgDHFR) stood at 3.56.

On to `N#Cc1ccc(N2CCN(c3cnc(N)nc3N)CC2)cn1` [Compound 189, 5-(4-(2,4-diaminopyrimidin-5-yl)piperazin-1-yl)picolinonitrile], for which the “Average DHFR selectivity (h/tc)” value at T. cruzi DHFR (tcDHFR) turned out to be 41.01. Besides, the IC50 is 8.04 nM on T. cruzi DHFR (tcDHFR), 309 nM on hDHFR (Table 16), 313 nM at hDHFR (Table 17) and 224 nM on T. gondii DHFR (tgDHFR). Besides, on T. gondii DHFR (tgDHFR), the “Average DHFR selectivity (h/tg)” value is 1.39.

Turning to `Nc1ncc(N2CCN(c3ccccc3C3=CCOCC3)CC2)c(N)n1` [Compound 193, 5-(4-(2-(3,6-dihydro-2H-pyran-4-yl)phenyl)piperazin-1-yl)pyrimidine-2,4-diamine], at T. cruzi DHFR (tcDHFR), the “Average DHFR selectivity (h/tc)” value amounted to 12.205. Moreover, the IC50 at T. cruzi DHFR (tcDHFR) was 73.3 nM; at hDHFR (Table 16), 871 nM; at hDHFR (Table 17), 871 nM; on T. gondii DHFR (tgDHFR) it was 87.1 nM. The “Average DHFR selectivity (h/tg)” value on T. gondii DHFR (tgDHFR) worked out at 10.47.
